Test results from US8394828B2 (Janssen Pharmaceutica, NV, priority 2003, dated 2013).
Where two headings read alike, the source gives them in different places.

What was measured:
human VR1 [1] = target: T1, human VR1 (Homo sapiens, UniProt Q8NER1); assay: Human VR1 [3H] RTX binding assay; settings: 3H-RTX binding; for inhibition at 1 µM / 3H-RTX binding assay % Inhibition @ 1 μM: compound at 1 μM; for Ki: hVR1, read-out: 3H-RTX binding assay Ki hVR1
T1 construct: expressed in transfected cells; host or cells: HEK293
Experimental: Compounds of the present invention were tested for their ability to inhibit the binding of [^3H] RTX to hVR1 receptors in a [^3H]
HEK293 cells were transfected with human VR1 vanilloid receptors and washed with Hank's Balanced Salt Solution, dissociated with cell dissociation buffer (Sigma), and then centrifuged at 1000×g for 5 min. […] The pelleted membranes were kept in an −80° C. freezer.
Approximately 120 μg protein/ml from membranes were incubated with indicated concentrations of [^3H] RTX in 0.5 ml of the HEPES buffer (pH 7.4) containing 0.25 mg/mL fatty acid-free bovine serum albumin at 37° C. for 60 min. […] The tip of the microcentrifuge tube containing the pellet was cut off. Bound radioactivity was quantified by scintillation counting. Non-specific binding was tested in the presence of 200 nM unlabeled RTX.

human VR1 [2] = target: T1, human VR1; assay: Human VR1 functional assay (intracellular Ca++, FLIPR, capsaicin challenge); type: cell-based
Experimental: The functional activity of the test compounds was determined by measuring changes in intracellular calcium concentration using a Ca^++-sensitive fluorescent dye and FLIPR™ technology.
EC50 or IC50 values were determined from dose-response studies.

[3] = hVR1, capsaicin challenge, read-out: FLIPR functional assay IC50 hVR1

T1 sequence (Q8NER1 whole entry): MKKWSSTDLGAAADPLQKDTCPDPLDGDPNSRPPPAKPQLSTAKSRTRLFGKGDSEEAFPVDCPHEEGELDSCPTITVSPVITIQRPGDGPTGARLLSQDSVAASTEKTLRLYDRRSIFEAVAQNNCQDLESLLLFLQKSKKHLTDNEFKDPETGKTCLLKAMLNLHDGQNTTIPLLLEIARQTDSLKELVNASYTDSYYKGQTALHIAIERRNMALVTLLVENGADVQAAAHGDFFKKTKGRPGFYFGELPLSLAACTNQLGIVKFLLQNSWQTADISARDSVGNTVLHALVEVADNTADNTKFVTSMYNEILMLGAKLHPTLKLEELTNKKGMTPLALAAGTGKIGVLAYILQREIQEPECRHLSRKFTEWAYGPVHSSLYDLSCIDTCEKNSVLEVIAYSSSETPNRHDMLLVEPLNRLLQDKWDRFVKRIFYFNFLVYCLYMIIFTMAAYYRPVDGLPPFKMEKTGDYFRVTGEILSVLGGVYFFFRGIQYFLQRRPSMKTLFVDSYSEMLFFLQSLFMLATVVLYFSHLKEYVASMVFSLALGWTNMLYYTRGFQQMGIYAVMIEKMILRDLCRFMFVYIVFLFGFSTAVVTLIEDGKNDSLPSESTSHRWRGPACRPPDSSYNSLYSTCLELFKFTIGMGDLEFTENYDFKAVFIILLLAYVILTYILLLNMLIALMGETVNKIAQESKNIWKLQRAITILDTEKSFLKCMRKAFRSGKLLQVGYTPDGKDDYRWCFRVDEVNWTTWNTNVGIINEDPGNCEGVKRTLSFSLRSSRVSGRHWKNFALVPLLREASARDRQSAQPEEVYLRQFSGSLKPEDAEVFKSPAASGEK

Row | SMILES | inhibition at 1 µM (human VR1 [1]) [%] | Ki (human VR1 [1]) [nM] | further results
1 | CC(C)=CCC[C@H](C)CCN(C)c1ccc(C(=O)Nc2cnc3ccccc3c2)cc1 | 105 | 12.9 | IC50 (human VR1 [2]; FLIPR functional assay IC50 hVR1 60 min, 60 min): 150 nM
2 | O=C(Nc1cnc2ccccc2c1Cl)c1ccc2c(ccn2C2CCCCC2)c1 [1-Cyclohexyl-1H-indole-5-carboxylic acid (4-chloro-quinolin-3-yl)-amide] |  |  | IC50 (human VR1 [2]; [3]): 166 nM
3 | O=C(Nc1cnc2ccccc2c1)c1ccc2c(ccn2C2CCCCC2)c1 [1-Cyclohexyl-1H-indole-5-carboxylic acid quinolin-3-ylamide] |  |  | IC50 (human VR1 [2]; [3]): 74 nM
4 | CCCCCc1ccc(CC(=O)Nc2cnc3ccccc3c2)cc1 [2-(4-Pentyl-phenyl)-N-quinolin-3-yl-acetamide] |  | 2200 | 
5 | CC(C)(C)c1ccc(CC(=O)Nc2cnc3ccccc3c2)cc1 [2-(4-tert-Butyl-phenyl)-N-quinolin-3-yl-acetamide] |  | 5760 | 
6 | CCCCCN(C)c1ccccc1C(=O)Nc1cnc2ccccc2c1 [2-(Methyl-pentyl-amino)-N-quinolin-3-yl-benzamide] | 21 |  | 
7 | O=C(Nc1cnc2ccccc2c1)c1ccc(N2CCCCC2)nc1 [3,4,5,6-Tetrahydro-2H-[1,2′]bipyridinyl-5′-carboxylic acid q] [3,4,5,6-Tetrahydro-2H-[1,2′]bipyridinyl-5′-carboxylic acid quinolin-3-ylamide] |  |  | 3H-RTX binding assay % Inhibition @ 1 μM (human VR1 [1]): 1%
8 | O=C(Nc1cnc2ccccc2c1)c1ccc(N2CCCCC2)nc1 [3,4,5,6-Tetrahydro-2H-{1,2′}bipyridinyl-5′-carboxylic acid q] [3,4,5,6-Tetrahydro-2H-{1,2′}bipyridinyl-5′-carboxylic acid quinolin-3-ylamide] |  |  | 3H-RTX binding assay % Inhibition @ 1 μM (human VR1 [1]): 100%
9 | CC(C)(C)c1ccc(C=CC(=O)Nc2cnc3ccccc3c2)cc1 [3-(4-tert-Butyl-phenyl)-N-quinolin-3-yl-acrylamide] |  | 1.11 | 
10 | CC(C)(C)c1ccc(CCC(=O)Nc2cnc3ccccc3c2)cc1 [3-(4-tert-Butyl-phenyl)-N-quinolin-3-yl-propionamide] |  | 2.03 | 
11 | CC(C)(C)c1ccc(C#CC(=O)Nc2cnc3ccccc3c2)cc1 [3-(4-tert-Butyl-phenyl)-propynoic acid quinolin-3-ylamide] |  |  | IC50 (human VR1 [2]; [3]): 66 nM
12 | CC(C)(CCc1ccccc1)c1ccc(CCC(=O)Nc2cnc3ccccc3c2)cc1 [3-{4-(1,1-Dimethyl-3-phenyl-propyl)-phenyl}-N-quinolin-3-yl-propionamide] |  | 15.9 | 
13 | CCC(C)(C)c1ccc(CCC(=O)Nc2cnc3ccccc3c2)s1 [3-{5-(1,1-Dimethyl-propyl)-thiophen-2-yl}-N-quinolin-3-yl-propionamide] |  | 14.2 | 
14 | O=C(Nc1cnc2ccccc2c1)c1ccc(N2Cc3ccccc3C2)cc1 [4-(1,3-Dihydro-isoindol-2-yl)-N-quinolin-3-yl-benzamide] | 1 |  | 
15 | CC1CCCN(c2ccc(C(=O)Nc3cnc4ccccc4c3)cc2)C1 (stereo not drawn) [4-(3-Methyl-piperidin-1-yl)-N-quinolin-3-yl-benzamide] | 78 |  | 
16 | O=C(Nc1cnc2ccccc2c1)c1ccc(N2CCC(C(=O)c3ccccc3)CC2)cc1 [4-(4-Benzoyl-piperidin-1-yl)-N-quinolin-3-yl-benzamide] | 61 | 276 | 
17 | O=C(Nc1cnc2ccccc2c1)c1ccc(N2CCC(c3ccccc3)CC2)cc1 [4-(4-Phenyl-piperidin-1-yl)-N-quinolin-3-yl-benzamide] | 34 | 29300 | 

Row | SMILES | inhibition at 1 µM (human VR1 [1]) [%] | Ki (human VR1 [1]) [nM] | further results
18 | CCCCCN(Cc1ccccc1)c1ccc(C(=O)Nc2cnc3ccccc3c2)cc1 [4-(Benzyl-pentyl-amino)-N-quinolin-3-yl-benzamide] | 67 | 169 | 
19 | Cc1cc(C(=O)Nc2cnc3ccccc3c2)ccc1NCC1CCCCC1 [4-(Cyclohexylmethyl-amino)-3-methyl-N-quinolin-3-yl-benzamide] | 111 | 87 | 
20 | O=C(Nc1cnc2ccccc2c1)c1ccc(NC2CCCCCC2)cc1 [4-Cycloheptylamino-N-quinolin-3-yl-benzamide] |  |  | IC50 (human VR1 [2]; [3]): 730 nM
21 | CCCCCN(CCCCC)c1ccc(C(=O)Nc2cnc3ccccc3c2)cc1 [4-Dipentylamino-N-quinolin-3-yl-benzamide] |  | 158 | 
22 | O=C(Nc1cnc2ccccc2c1)c1ccc(N2CCOCC2)cc1 [4-Morpholin-4-yl-N-quinolin-3-yl-benzamide] | 4 |  | 
23 | O=C(Nc1cnc2ccccc2c1)c1ccc(N2CCCCC2)cc1 [4-Piperidin-1-yl-N-quinolin-3-yl-benzamide] | 60 | 61.2 | 
24 | O=C(Nc1cnc2ccccc2c1)c1ccc(N2CCCC2)cc1 [4-Pyrrolidin-1-yl-N-quinolin-3-yl-benzamide] | 27 |  | 
25 | O=C(Nc1cnc2ccccc2c1)c1ccc(N2CCC(N3CCCCC3)CC2)cc1 [4-[1,4′]Bipiperidinyl-1′-yl-N-quinolin-3-yl-benzamide] | 8 |  | 
26 | CN(CC=Cc1ccccc1)c1ccc(C(=O)Nc2cnc3ccccc3c2)cc1 [4-{Methyl-(3-phenyl-allyl)-amino}-N-quinolin-3-yl-benzamide] | 79 | 125 | 
27 | CN(c1ccc(C(=O)Nc2cnc3ccccc3c2)cc1)C1CCOCC1 [4-{Methyl-(tetrahydro-pyran-4-yl)-amino}-N-quinolin-3-yl-benzamide] | 19 |  | 
28 | CC1(C)CCC(C)(C)c2cc(C(=O)Nc3cnc4ccccc4c3)ccc21 [5,5,8,8-Tetramethyl-5,6,7,8-tetrahydro-naphthalene-2-carboxylic acid quinolin-3-ylamide] |  | 30.4 | 
29 | CC1(C)CCC(C)(C)c2cc(C=CC(=O)Nc3cnc4ccccc4c3Cl)ccc21 [N-(4-Chloro-quinolin-3-yl)-3-(5,5,8,8-tetramethyl-5,6,7,8-tetrahydro-naphthalen-2-yl)-acrylamide] |  |  | IC50 (human VR1 [2]; [3]): 30 nM
30 | CN(c1ccc(C(=O)Nc2cnc3ccccc3c2Cl)cc1)C1CCCCC1 [N-(4-Chloro-quinolin-3-yl)-4-(cyclohexyl-methyl-amino)-benzamide] |  |  | IC50 (human VR1 [2]; [3]): 107 nM
31 | CC1(C)CCC(C)(C)c2cc(C=CC(=O)Nc3cnc4ccccc4c3)ccc21 [N-Quinolin-3-yl-3-(5,5,8,8-tetramethyl-5,6,7,8-tetrahydro-naphthalen-2-yl)-acrylamide] |  |  | IC50 (human VR1 [2]; [3]): 65 nM
32 | O=C(Nc1cnc2ccccc2c1)c1ccc(NC2CCOCC2)cc1 [N-Quinolin-3-yl-4-(tetrahydro-pyran-4-ylamino)-benzamide] | 9 |  | 
33 | O=C(Nc1cnc2ccccc2c1)c1ccc(N2CCSCC2)cc1 [N-Quinolin-3-yl-4-thiomorpholin-4-yl-benzamide] | 41 |  | 
34 | CC(C)=CCC[C@@H](C)CCN(C)c1ccc(C(=O)Nc2cnc3ccccc3c2)cc1 [R-4-{(3,7-Dimethyl-oct-6-enyl)-methyl-amino}-N-quinolin-3-yl-benzamide] | 105 | 11.1 | 

Continued, in another order:

Row | inhibition at 1 µM (human VR1 [1]) [%] | Ki (human VR1 [1]) [nM] | SMILES | further results
35 | 104 | 29.2 | O=C(Nc1cnc2ccccc2c1)c1ccc(N2CC[C@@H]3CCCC[C@H]3C2)cc1 (relative stereo) [trans-4-(Octahydro-isoquinolin-2-yl)-N-quinolin-3-yl-benzamide] | 
36 |  | 508 | CCCCCN(CCCCC)c1ccc(CC(=O)Nc2cnc3ccccc3c2)cc1 [2-(4-Dipentylamino-phenyl)-N-quinolin-3-yl-acetamide] | 
37 | 0 |  | CCCCCCCN(C)c1ccccc1C(=O)Nc1cnc2ccccc2c1 [2-(Heptyl-methyl-amino)-N-quinolin-3-yl-benzamide] | 
38 | 65 | 1130 | O=C(Nc1cnc2ccccc2c1)c1ccc(NCC2CCCCC2)cc1Cl [2-Chloro-4-(cyclohexylmethyl-amino)-N-quinolin-3-yl-benzamide] | 
39 | 23 |  | CCCCCNc1ccccc1C(=O)Nc1cnc2ccccc2c1 [2-Pentylamino-N-quinolin-3-yl-benzamide] | 
40 |  | 1350 | CCCCCN(C)c1ccc(CC(=O)Nc2cnc3ccccc3c2)cc1 [2-{4-(Methyl-pentyl-amino)-phenyl}-N-quinolin-3-yl-acetamide] | 
41 |  | 153 | CCCCCN(CCCCC)c1ccc(CCC(=O)Nc2cnc3ccccc3c2)cc1 [3-(4-Dipentylamino-phenyl)-N-quinolin-3-yl-propionamide] | 
42 | 89 | 98.2 | CN(c1cccc(C(=O)Nc2cnc3ccccc3c2)c1)C1CCCCC1 [3-(Cyclohexyl-methyl-amino)-N-quinolin-3-yl-benzamide] | 
43 | 65 | 122 | CCCCCN(C)c1ccc(C=CC(=O)Nc2cnc3ccccc3c2)cc1 [3-{4-(Methyl-pentyl-amino)-phenyl}-N-quinolin-3-yl-acrylamide] | 
44 | 9 |  | O=C(Nc1cnc2ccccc2c1)c1ccc(N2CCC3(CC2)OCCO3)cc1 [4-(1,4-Dioxa-8-aza-spiro[4.5]dec-8-yl)-N-quinolin-3-yl-benzamide] | 
45 | 87 | 162 | O=C(Nc1cnc2ccccc2c1)c1ccc(N(CCc2ccccc2)CC2CCCCC2)cc1 [4-(Cyclohexylmethyl-phenethyl-amino)-N-quinolin-3-yl-benzamide] | 
46 | 80 | 194 | CCCCC(C)(C)c1ccc(C=CCC(=O)Nc2cnc3ccccc3c2)cc1 [4-{4-(1,1-Dimethyl-pentyl)-phenyl}-but-3-enoic acid quinolin-3-ylamide] | 
47 | 65 | 527 | CCC(C)(C)c1ccc(CCCC(=O)Nc2cnc3ccccc3c2)cc1 [4-{4-(1,1-Dimethyl-propyl)-phenyl}-N-quinolin-3-yl-butyramide] | 
